Among the data in US20140080813A1, “TRICYCLIC QUINOLINE AND QUINOXALINE DERIVATIVES” (ABBVIE DEUTSCHLAND GMBH & CO. KG, priority 2012, published 2014) are EC50 values, retold here.

The structures appear in SMILES notation. Counter-ions that a name gives are not always drawn.

T1 sequence (P28335 33-458): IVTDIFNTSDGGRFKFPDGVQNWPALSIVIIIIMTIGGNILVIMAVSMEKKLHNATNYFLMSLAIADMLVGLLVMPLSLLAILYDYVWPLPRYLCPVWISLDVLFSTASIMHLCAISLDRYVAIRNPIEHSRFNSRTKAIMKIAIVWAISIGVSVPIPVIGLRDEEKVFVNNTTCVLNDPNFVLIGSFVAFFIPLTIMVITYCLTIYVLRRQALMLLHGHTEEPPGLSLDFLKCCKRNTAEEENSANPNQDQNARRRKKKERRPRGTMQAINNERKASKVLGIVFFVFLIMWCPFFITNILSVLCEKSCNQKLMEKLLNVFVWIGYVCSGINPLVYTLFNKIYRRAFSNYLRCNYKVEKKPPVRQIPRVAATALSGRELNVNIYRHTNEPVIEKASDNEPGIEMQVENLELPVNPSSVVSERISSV
T1 sequence (P32121 whole entry partner): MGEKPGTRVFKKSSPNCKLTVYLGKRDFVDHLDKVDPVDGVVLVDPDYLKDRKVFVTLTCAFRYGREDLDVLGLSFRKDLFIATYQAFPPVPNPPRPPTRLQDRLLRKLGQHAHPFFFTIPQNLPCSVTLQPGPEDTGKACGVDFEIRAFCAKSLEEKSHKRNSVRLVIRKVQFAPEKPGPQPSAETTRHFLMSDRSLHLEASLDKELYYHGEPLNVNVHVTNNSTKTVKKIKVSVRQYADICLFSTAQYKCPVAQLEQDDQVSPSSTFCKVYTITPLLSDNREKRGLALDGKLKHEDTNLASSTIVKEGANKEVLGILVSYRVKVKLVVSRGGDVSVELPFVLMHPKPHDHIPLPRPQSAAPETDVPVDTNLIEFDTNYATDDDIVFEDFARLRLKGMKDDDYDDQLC

This assay addresses T1, 5-HT2C receptor (Homo sapiens, UniProt P28335).
T1 construct: host or cells: U2OS
Briefly: Functional activity: beta-arrestin2 recruitment to the 5-HT2C receptor in U2OS_HTR2C-β-Arrestin cells (DiscoverX). The class given is cell-based. The settings on record: 1.5 h incubation, chemiluminescent β-galactosidase complementation readout, read-out: Potency (EC50) in functional assay. The procedure:
The functional activity of compounds of formula I was assayed by incubation with U2OS_HTR2C—β-Arrestin cells (DiscoverX, 93-0289C3) to induce beta-arrestin2 recruitment to the 5-HT2C receptor. The agonist-induced recruitment and proximity of the receptor and beta-arrestin2 leads to complementation and formation of active β-galactosidase. The enzyme complementation results in enzyme activity, which is measured following the termination of the agonist incubation using DiscoveRx's detection reagent, which contains a chemiluminescent substrate which produces a high intensity signal. Cells were plated and a medium-change to a 1% serum containing medium was performed 24 h later. The next day, test compounds were added and incubated for 1.5 h before addition of detection reagent.
The response produced was measured and compared with the response produced by 10 [mu]M 5-HT or the maximal effect induced by 5-HT (defined as 100%) to which it was expressed as a percentage response (relative efficacy). Dose response curves were constructed using Graphpad Prism (Graph Software Inc.) or using in house adapted software using a 4 parameter dose response model with variable slope (fit=(Bottom+(Top−Bottom)/(1+10̂((LogEC50−x)*HillSlope))res=(y-fit)). Results are compiled in the table below.
For orientation: Activated receptors often draw arrestin, which recruitment assays turn into a signal.
Turning to `CC1CN2CCNCc3cccc(c32)C1(C)C` (single isomer, unassigned) [Example 27], the EC50 (usually the concentration needed to bring the measured effect to its halfway point) was in the range of 200 to 1000 nM. In the case of `Fc1ccc2c3c1C1(CCC1)CCN3CCNC2` [Example 26, 9′-Fluoro-1′,2′,3′,4′,6′,7′-hexahydrospiro[cyclobutane-1,8′-[1,4]diazepino[6,7,1-ij]quinoline], hydrochloride] it was below 20 nM. For `CC1(C(F)(F)F)CCN2CCNCc3cccc1c32` (single isomer, unassigned) [Example 8, 8-Methyl-8-(trifluoromethyl)-2,3,4,6,7,8-hexahydro-1H-[1,4]diazepino[6,7,1-ij]quinoline], the EC50 is 20 to 200 nM. In the case of `CC1(C(F)(F)F)CCN2CCNCc3cccc1c32` (single isomer, unassigned) [Example 9, 8-Methyl-8-(trifluoromethyl)-2,3,4,6,7,8-hexahydro-1H-[1,4]diazepino[6,7,1-ij]quinoline] it was below 20 nM.

In the case of `c1cc2c3c(c1)C1(CCCC1)CCN3CCNC2` [Example 6, 1,2,3,4,6,7-Hexahydrospiro[[1,4]diazepino[6,7,1-ij]quinoline-8,1′-cyclopentane]], the EC50 was in the range of 20 to 200 nM. In the case of `CC1(C)CCN2CCNCc3ccc(F)c1c32` [Example 22, 9-Fluoro-8,8-dimethyl-2,3,4,6,7,8-hexahydro-1H-[1,4]diazepino[6,7,1-ij]quinoline] it was 20 to 200 nM; in that of `c1cc2c3c(c1)N1CCC[C@@H]1CN3CCNC2` [Example 16, (R)-5,6,7,9,9a,10,11,12-Octahydro-4H-[1,4]diazepino[1,7,6-de]pyrrolo[1,2-a]quinoxaline bis(2,2,2-trifluoroacetate)], 200 to 1000 nM; in that of `CC1CN2CCNCc3cccc(c32)C1(C)C` (single isomer, unassigned) [Example 28], 20 to 200 nM.

`CC1(C)CCN2CCNCc3cccc1c32` [Example 1, 8,8-Dimethyl-2,3,4,6,7,8-hexahydro-1H-[1,4]diazepino[6,7,1-ij]quinoline]: the EC50 is 20 to 200 nM. With `c1cc2c3c(c1)C1(CCC1)CCN3CCNC2` [Example 25, 1′,2′,3′,4′,6′,7′-Hexahydrospiro[cyclobutane-1,8′-[1,4]diazepino[6,7,1-ij]quinoline], hydrochloride], the EC50 lay in the range of 20 to 200 nM. As for `CC1(C)CCN2CCNCc3cc(Cl)cc1c32` [Example 19, 10-Chloro-8,8-dimethyl-2,3,4,6,7,8-hexahydro-1H-[1,4]diazepino[6,7,1-ij]quinoline bis(2,2,2-trifluoroacetate)], the EC50 fell in the range of 20 to 200 nM.
